Measurements from ChEMBL document CHEMBL1681768, “Synthesis and biological evaluation of 4-quinazolinones as Rho kinase inhibitors” (Bioorg Med Chem Lett, 2011).

Tests used:
Type in all cases: ADME, organism-based
[1] = Volume of distribution at steady state in Sprague-Dawley rat at 1 mg/kg, iv; set-up: dose 1 mg/kg, route intravenous; conditions: in vivo, read-out: Vdss
[2] = Cmax in Sprague-Dawley rat at 2 mg/kg, po; set-up: dose 2 mg/kg, route oral; conditions: in vivo
[3] = AUC in Sprague-Dawley rat at 2 mg/kg, po; set-up: dose 2 mg/kg, route oral; conditions: plasma
[4] = Oral bioavailability in Sprague-Dawley rat at 2 mg/kg; conditions: in vivo

Vd [1] [L/kg]	Cmax [2] [nM]	AUC [3] [µM·h]	bioavailability [4] [%]	Compound
0.27	8000	43.4	66	COc1ccc2c(c1)CC(c1nc3ccc(-c4cn[nH]c4)cc3c(=O)[nH]1)CO2 (centres undefined)
0.14	2850	63.2	46	COc1ccc2c(c1)C[C@H](c1nc3ccc(-c4cn[nH]c4)cc3c(=O)[nH]1)CO2
0.49	580	2.36	13	COc1ccc2c(c1)C[C@@H](c1nc3ccc(-c4cn[nH]c4)cc3c(=O)[nH]1)CO2
0.1	4600	87.9	26	COc1ccc2c(c1)CC(c1nc3c(OC)cc(-c4cn[nH]c4)cc3c(=O)[nH]1)CO2 (centres undefined)

Further lines, the compound ahead of its results:

Compound	Vd [1] [L/kg]	Cmax [2] [nM]	AUC [3] [µM·h]	bioavailability [4] [%]
COc1ccc2c(c1)CC(c1nc3c(OCCN(C)C)cc(-c4cn[nH]c4)cc3c(=O)[nH]1)CO2 (centres undefined)	1.3	50	0.15	3
COc1cccc(OCc2nc3c(OC)cc(-c4cn[nH]c4)cc3c(=O)[nH]2)c1	0.22	660	9.63	15
